What was measured:
[1] = test system: control peptides and singly modified peptides; experiment: Antibody specificity peptide array (dot-blot assay); format: binding; settings: FIG. 9
Experimental: FIG. 9A-9B. Peptide array confirms high antibody specificity (A-B) Reactivity of H3K27me3 antibody (A) or H3K4me3 antibody (B) with control peptides and singly modified peptides.
To test for antibody specificity, Applicants used a peptide array with unlabeled antibodies (the same lots of antibodies that were labeled by Cell Signaling and used for the imaging) according to the following protocol: array is immersed in 4 ml blocking solution (TBST containing 5% non-fat dried milk) for 4 hours at room temperature. Next, array is washed 3 times with TBST, and primary antibody is added (diluted in TBST 1:25,000). Antibody is incubated over night at 4° C. on a rotor. Then the array is washed 3 times in TBST and the secondary antibody (Active Motif, 100612) is added for 1 hour at room temperature. Array is washed again 3 times in TBST and the signal is detected by FlourChemQ.

[2] = test system: recombinant unmodified nucleosomes; experiment: Single-molecule antibody binding to recombinant unmodified nucleosomes; settings: monitored over time; FIG. 8A
Experimental: FIG. 8A-8B. Low background and high specificity of antibody binding. (A) Recombinant unmodified nucleosomes were prepared as previously described (91), and then ligated to biotinylated, fluorescent adaptors as in FIG. 1A. Binding of fluorescently-labeled H3K27me3 antibodies was monitored over time. […] For comparison, also shown are images of H3K27me3 antibody binding to nucleosomes prepared from HEK293 cells. (B) Western-blot analysis of labeled H3K27me3 peptide (TAMRA, green) bound by H3K27me3 antibodies (Alexa647, red). Fluorescent signal on membrane was visualized using a Typhoon trio+imager (Amersham Biosciences).
Applicants imaged millions of nucleosomes and decoded their modification state. Images are analyzed with Cell Profiler software. […] In contrast, when Applicants treated cells with histone deacetylase inhibitors (HDACi), the fraction of acetylated nucleosomes increased to 7% (FIG. 1C, 1D). Importantly, when Applicants repeated the analysis with recombinant unmodified nucleosomes, just 0.1% of nucleosomes scored (FIG. 1E, 8A). […]
(§1) All experiments were performed on a total internal reflection (TIRF) microscope with two lasers, 532 nm/75 mW and 640 nm/40 mW, for fluorescence excitation (Compass 215M, Cube-40C, Coherent). […]

nucleosomes from ESCs = experiment: Time-lapse TIRF imaging of antibody binding and dissociation on nucleosomes from ESCs; design: species or system Mouse; settings: images every 15 minutes, FIG. 7B-C
Experimental: FIG. 7A-7F. Time-lapse images detect repeated antibody binding and dissociation events. (A) Mono-nucleosomes were extracted from HEK293 cells, labeled and distributed on the surface as described in FIG. 1A. […] Shown are images taken at 15, 30 and 45 minutes after addition of antibodies. (B-F) Nucleosomes from ESCs were distributed on the surface and incubated with antibodies targeting H3K27me3 (B, D, F) or H3K4me3 (C, E). Time lapse images were taken every 15 minutes. A total of 10,000 individual binding events were analyzed for each antibody. (B-C) Number of binding events detected at each time point. Equilibrium of binding and dissociation of antibodies is achieved at 45 minutes for H3K27me3, and 75 minutes for H3K4me3. Later images show mild reduction in signal due to photo bleaching. (D-E) For each nucleosome, the number of binding events by antibody was calculated in a total of 8 images taken during the time course of the experiment (30-135 minutes). Graph depicts a histogram of the number of images in which each nucleosome is bound by the antibody. Due to repeated binding and dissociation events, most of the nucleosomes are bound more than once. […]
as §1

binding events on recombinant unmodified nucleosomes [2]: Very few binding events were detected | time at which equilibrium of binding and dissociation of antibodies is achieved (nucleosomes from ESCs): 45 min
Substance: H3K27me3 antibody: Tri-Methyl-Histone H3 (Lys27) (C36B11) Rabbit mAb (Alexa Fluor 647 Conjugate), Cell Signaling #12158
reactivity with control peptides and singly modified peptides (target specificity) [1]: very high target specificity and low background
